The values that follow come from patent US7507739B2, “6-[(substituted)phenyl]triazolopyrimidines as anticancer agents” (Wyeth, priority 2003, dated 2009).

The subject of experiment [1] is A549 Human Non-Small Cell Lung Carcinoma. In words: Human tumor xenograft test, A549. The settings on record: A549, intravenously q4dX8 at 40 mg/kg. It is filed as in vivo, athymic mice. The procedure: (§1) The ability of compounds of this invention to inhibit tumor growth in animals is studied in the athymic mouse xenograft standard pharmacological test. Female nu/nu mice in an outbred albino background are obtained from Charles River Laboratories (Wilmington, Mass.). Animals are injected subcutaneously on the flank with the desired tumor cell suspension. Several days later, mice with tumors of approximately 150 mm^3 are selected from those injected (staged) and randomly distributed into groups of 5-10. The day of staging is called day 0. Compounds of the invention, usually formulated in saline (exceptions are noted in tables), are administered to animals by intravenous injection or oral gavage on various schedules starting on day 0 or 1, as noted in the tables. The control group in each experiment is dosed with vehicle on the same schedule. Tumor size is measured every 3-7 days with calipers in two orthogonal dimensions, and tumor volume is calculated from the formula volume=[(length×width^2)/2].
(§2) Tumor/Control (T/C) is obtained by dividing the mean tumor volume of the treated group by the mean tumor volume of the control group on each measurement day. A treatment dose is defined as active if it produced a statistically significant T/C of 0.50 or less. A p value≦0.05, determined by one-side Student's t-test, is required for statistical significance. A treatment dose is defined as toxic if more than 10% of the animals died from a compound-related toxicity.
(A xenograft is tissue or cells of one species grown in another, often human tumour cells in immunodeficient mice.)

Experiment [2] relates to COLO 205 cells. In words: MTS cytotoxicity test with COLO 205 cells. It is filed as cell-based, human. The note with it: 3 days. How it is done: The assay, which is sold in kit form by Promega (Madison, Wis.; CellTiter 96 AQueous Non-Radioactive Cell Proliferation Assay), is based on the conversion by viable cells, but not by dead cells, of the tetrazolium salt, MTS (3-(4,5-dimethylthiazol-2-yl)-5-(3-carboxymethoxyphenyl)-2-(4-sulphophenyl)-2H-tetrazolium, inner salt), into a water-soluble colored formazan which is detected by spectrophotometry. Compounds are tested at nine concentrations, in order to determine IC50 values. For the test procedure, cells are harvested by trypsinization (or, in the case of non-adherent cells, by simple resuspension), washed, counted and distributed to wells of 96-well flat-bottom microtiter plates at 1000 cells per well in 200 μL of medium. In addition, one row of wells on a separate plate received cells as above (“time 0” plate). All plates are incubated at 37° in humidified 5% CO2 in air for about 24 hr.
On day 2, compounds for test are diluted and added to wells. Compounds are dissolved in DMSO at 10 mg/mL. For each compound, nine serial 2-fold dilutions are prepared in DMSO. Ten μL of each dilution in DMSO is transferred to 100 μL of medium, mixed well, and then 5 μL of this dilution is transferred in quadruplicate to wells containing cells. The final high concentration of each compound is typically 5 μM. Plates are returned to the incubator for three days. At the time of drug addition to the experimental plates, the MTS assay is run on the “time 0” plate. This produced the “time 0 MTS value” which is related to the number of viable cells per well at the time of drug addition.
After three days of culture with test compounds (day 5 overall), the MTS assay is done on all wells of the experimental plates. The absorbance values of the quadruplicate sample wells are averaged and divided by the average of the “time 0” values. The average of control wells without drug, divided by the average “time 0” value, gave the maximal relative increase in MTS color yield due to cell growth during the final three days of culture. The average of control wells with high drug concentration, divided by the “time 0” value, gave the minimal relative color yield for cells that are completely killed. The nine values for each compound are plotted against concentration, and the concentration that produced a relative color yield half way between the maximum and minimum is taken as the IC50 value.
COLO 205 is a human colon carcinoma cell line that is used for comparative testing of the examples of this invention and several reference compounds. This line is sensitive to paclitaxel and vincristine.
For orientation: Formazan colour is commonly taken as a measure of viable cells.

The subject of experiment [3] is MAP-rich tubulin. In words: Tubulin polymerization test with MAP-rich tubulin. It is filed as biochemical, bovine. The note with it: 0.3 μM compound, 20 min, fold enhancement over control. How it is done: Medium is RPMI-1640 with L-glutamine, supplemented with 10% heat-inactivated fetal calf serum, 100 units/ml penicillin, and 100 μg/ml streptomycin (Gibco, Grand Island, N.Y.). Microtubule-associated protein (MAP)-rich tubulin, containing about 70% tubulin and 30% MAPs (#ML113), and highly purified tubulin (>99% pure, #TL238), both from bovine brain, are obtained from Cytoskeleton, Inc., Denver, Colo. PEM buffer (80 mM piperazine-N,N′-bis[2-ethanesulfonic acid], pH 6.9, 1 mM ethylene glycol-bis(β-aminoethyl ether)-N,N,N′,N′-tetraacetic acid, 1 mM magnesium chloride) and guanosine 5′-triphosphate (GTP) are also obtained from Cytoskeleton. [3H]paclitaxel, specific activity 14.7 Ci/mmol, is purchased from Moravek Biochemicals (Brea, Calif.). [^3H]vinblastine, specific activity 9.60 Ci/mmol and MicroSpin G-50 columns are obtained from Amersham Biosciences (Piscataway, N.J.). […] Other reagents are obtained from Sigma (St. Louis, Mo.).
Two variations of this procedure are done, one using MAP-rich tubulin and one using pure tubulin.
MAP-rich tubulin is dissolved in ice-cold PEM buffer containing 1 mM GTP (GPEM buffer) at a concentration of 1.3 mg/mL. The solution is centrifuged at top speed in an Eppendorf model 5415C microcentrifuge (Brinkmann Instruments, Westbury, N.Y.) for 10 min at […] immediately before use. The tubulin solution is added to wells of a ½-area 96-well plate (Costar No. 3696, Corning, Inc., Corning, N.Y.) already containing the compounds of interest. Each compound is tested in duplicate at a final concentration of 0.3 μM in a volume of 110 μL per well. The final DMSO concentration in all wells is 0.3%. Control reactions, which received compound solvent only, are done in quadruplicate. The plate is put in a SpectraMax Plus plate reader (Molecular Devices Corp. Sunnyvale, Calif.) thermostated at 24° and the absorbance of each well at 340 nm, a measure of the appearance of turbidity due to tubulin polymer formation, is determined every minute for 60 minutes. The absorbance at time 0 for each well is subtracted from each of the subsequent absorbance readings for that well, and then the duplicates are averaged.
In this assay, control reactions with MAP-rich tubulin show an S-shaped absorbance profile characterized by three phases: first, a lag phase during which no change in absorbance occurs; second, a polymerization phase in which absorbance increases; and third, a plateau phase in which absorbance has reached a maximum and little or no further change occurs. Polymerization enhancers such as paclitaxel and docetaxel shorten or eliminate the lag phase, increase the rate of the polymerization phase, and often increase the height of the plateau. […] The compounds of this invention have a taxane-like effect on the polymerization reaction. This has been expressed quantitatively in Table 5 by dividing the mean A340 of each sample at 20 min by the mean A340 of the control at 20 min to give a fold enhancement over control. […] Examples of this invention have factors ranging up to 8.1, with the majority in the 5 to 6-fold range.

Experiment [4] deals with DLD1 Human Colon Carcinoma. In words: Human tumor xenograft test, DLD1. It is filed as in vivo. The note with it: DLD1, 15 mg/kg intravenously on days 1, 5, 9, and 13. How it is done: as §1, §2

Consider `CN(C)CCCOc1cc(F)c(-c2c(Cl)nc3ncnn3c2NCC(F)(F)F)c(F)c1` [Example 4, 5-Chloro-6-{4-[3-(dimethylamino)propoxy]-2,6-difluorophenyl}-N-(2,2,2-trifluoroethyl)[1,2,4]triazolo[1,5-a]pyrimidin-7-amine], for which the “tumor growth inhibition (activity call)” value in experiment [1] is recorded as “inhibited the growth”.
In the case of `C[C@H](Nc1c(-c2c(F)ccc(OCCN(C)C)c2F)c(Cl)nc2ncnn12)C(F)(F)F` [Example 27, 5-Chloro-6-{3-[2-(dimethylamino)ethoxy]-2,6-difluorophenyl}-N-[(1S)-2,2,2-trifluoro-1-methylethyl][1,2,4]triazolo[1,5-a]pyrimidin-7-amine], the IC50 in experiment [2] (Homo sapiens, COLO 205, 72 h) was 1570 nM.
For `CNCCOc1cc(F)c(-c2c(Cl)nc3ncnn3c2N[C@@H](C)C(F)(F)F)c(F)c1` [Example 14, 5-Chloro-6-{2,6-difluoro-4-[2-(methylamino)ethoxy]phenyl}-N-[(1S)-2,2,2-trifluoro-1-methylethyl][1,2,4]triazolo[1,5-a]pyrimidin-7-amine], the “A340 Compound/A340 Control” value in experiment [3] amounted to 1.5. In experiment [2] (Homo sapiens, COLO 205, 72 h), this compound came in with an IC50 of 881 nM.
`C[C@H](Nc1c(-c2c(F)ccc(OCCCN(C)C)c2F)c(Cl)nc2ncnn12)C(F)(F)F` [Example 28, 5-Chloro-6-{3-[3-(dimethylamino)propoxy]-2,6-difluorophenyl}-N-[(1S)-2,2,2-trifluoro-1-methylethyl][1,2,4]triazolo[1,5-a]pyrimidin-7-amine]: in experiment [2] (Homo sapiens, COLO 205, 72 h), it took 785 nM to reach half-maximal inhibition (IC50).
Same read-out and setting: then `C[C@H](Nc1c(-c2c(F)cc(OCCO)cc2F)c(Cl)nc2ncnn12)C(F)(F)F` [Example 19, 2-[4-(5-Chloro-7-{[(1S)-2,2,2-trifluoro-1-methylethyl]amino}[1,2,4]triazolo[1,5-a]pyrimidin-6-yl)-3,5-difluorophenoxy]ethanol], with 422 nM.
Turning to `C[C@H](Nc1c(-c2c(F)cc(NCCN(C)C)cc2F)c(Cl)nc2ncnn12)C(F)(F)F` [Example 24, N^1-[4-(5-Chloro-7-{[(1S)-2,2,2-trifluoro-1-methylethyl]amino}[1,2,4]triazolo[1,5-a]pyrimidin-6-yl)-3,5-difluorophenyl]-N^2,N^2-dimethylethane-1,2-diamine], the “A340 Compound/A340 Control” value in experiment [3] is listed as 1.2. In experiment [2] (Homo sapiens, COLO 205, 72 h), this compound had an IC50 of 1730 nM.
Taken in the same sequence, the figures for `C[C@H](Nc1c(-c2c(F)cc(OCCCN3CCCCC3)cc2F)c(Cl)nc2ncnn12)C(F)(F)F` [Example 10, 5-Chloro-6-[2,6-difluoro-4-(3-piperidin-1-ylpropoxy)phenyl]-N-[(1S)-2,2,2-trifluoro-1-methylethyl][1,2,4]triazolo[1,5-a]pyrimidin-7-amine] were 6.3 and 113 nM.
Regarding `CNCCCOc1cc(F)c(-c2c(Cl)nc3ncnn3c2N[C@H](C)C(F)(F)F)c(F)c1` [Example 33, 5-Chloro-6-{2,6-difluoro-4-[3-(methylamino)propoxy]phenyl}-N-[(1R)-2,2,2-trifluoro-1-methylethyl][1,2,4]triazolo[1,5-a]pyrimidin-7-amine], 126 nM corresponded to half-maximal inhibition in experiment [2] (Homo sapiens, COLO 205, 72 h) (IC50).
Compound `C[C@H](Nc1c(-c2c(F)cc(OCCCN(C)C)cc2F)c(Cl)nc2ncnn12)C(F)(F)F` [Example 1, 5-Chloro-6-{4-[3-(dimethylamino)propoxy]-2,6-difluorophenyl}-N-[(1S)-2,2,2-trifluoro-1-methylethyl][1,2,4]triazolo[1,5-a]pyrimidin-7-amine] displayed an IC50 in experiment [2] of 41 nM. Moreover, the “tumor growth inhibition (activity call)” value in experiment [4] is “active”.
On to `C[C@H](Nc1c(-c2c(F)ccc(OCCCCN(C)C)c2F)c(Cl)nc2ncnn12)C(F)(F)F` [Example 29, 5-Chloro-6-{3-[4-(dimethylamino)butoxy]-2,6-difluorophenyl}-N-[(1S)-2,2,2-trifluoro-1-methylethyl][1,2,4]triazolo[1,5-a]pyrimidin-7-amine], for which, in experiment [2] (Homo sapiens, COLO 205, 72 h), the IC50 turned out to be 433 nM.
Compound `C[C@H](Nc1c(-c2c(F)cc(OCCCN)cc2F)c(Cl)nc2ncnn12)C(F)(F)F` [Example 5, 6-[4-(3-Aminopropoxy)-2,6-difluorophenyl]-5-chloro-N-[(1S)-2,2,2-trifluoro-1-methylethyl][1,2,4]triazolo[1,5-a]pyrimidin-7-amine] gave an IC50 in experiment [2] (Homo sapiens, COLO 205, 72 h) of 452 nM.
The same measure, in the same setting: for `C[C@H](Nc1c(-c2c(F)cc(OCCCCO)cc2F)c(Cl)nc2ncnn12)C(F)(F)F` [Example 21, 4-[4-(5-Chloro-7-{[(1S)-2,2,2-trifluoro-1-methylethyl]amino}[1,2,4]triazolo[1,5-a]pyrimidin-6-yl)-3,5-difluorophenoxy]butan-1-ol] the value was 151 nM.
As to `C[C@H](Nc1c(-c2c(F)cc(OCCCN3CCOCC3)cc2F)c(Cl)nc2ncnn12)C(F)(F)F` [Example 11, 5-Chloro-6-[2,6-difluoro-4-(3-morpholin-4-ylpropoxy)phenyl]-N-[(1S)-2,2,2-trifluoro-1-methylethyl][1,2,4]triazolo[1,5-a]pyrimidin-7-amine], the half-maximal inhibitory concentration (IC50) in experiment [2] (Homo sapiens, COLO 205, 72 h) is 89 nM.
In experiment [2] (Homo sapiens, COLO 205, 72 h), `CN(C)CCCOc1cc(F)c(-c2c(Cl)nc3ncnn3c2C2CCCCCC2)c(F)c1` [Example 31, 3-[4-(5-Chloro-7-cycloheptyl[1,2,4]triazolo[1,5-a]pyrimidin-6-yl)-3,5-difluorophenoxy]-N,N-dimethylpropan-1-amine] returned a half-inhibitory concentration (IC50) of 19 nM.

For orientation: IC50 means the concentration that gives 50% inhibition.
